Assay results as given in US9211310B2, “Use of a Chinese medicine composition in preparing medicaments for treating secondary prevention of myocardial infarction” (TASLY PHARMACEUTICAL GROUP CO., LTD, priority 2010, dated 2015).

Test system: patients after acute myocardial infarction
Assay: TCM symptom score, total and single (chest pain, chest tightness, short breath, fatigue, palpitation, spontaneous perspiration, pale complexion), same clinical trial
Format: in vivo, human
Set-up: total score of TCM symptom, Mean / total score of TCM symptom, Min / total score of TCM symptom, Max / total score of TCM symptom, Md / change of total score of TCM symptom, Mean / change of total score of TCM symptom, Max / change of total score of TCM symptom, Md: scale not given here
Conditions: FAS
From the text: 3508 patients who were in accordance with the diagnostic standards of AMI for 28 days to 2 years and differentiated as Qi deficiency and blood stagnation syndrome by TCM were studied. 0.5 g Chinese medicine composition prepared by the method of EXAMPLE 1 (Coded as QSYQ) was administrated half an hour after meal, 3 times per day.
They included the overall survival time, angina pectoris score, TCM symptom score and life quality score, where angina pectoris score, TCM symptom score and life quality score were evaluated at randomization, in 1st, 3rd, 6th, 9th, 12th month after treatment and 18th month after follow-up.
The analysis method referred to the angina pectoris score.

[1] = 3 months after treatment-baseline
[2] = 6 months after treatment-baseline

`CC(=O)Oc1ccccc1C(=O)O` [Control group, aspirine] was tested, and the “total score of TCM symptom, Md” value (3 months after treatment) was 10.00, the “total score of TCM symptom, Mean” value (3 months after treatment) was 10.90 and the “total score of TCM symptom, Min” value (3 months after treatment) was 0.00. The “change of fatigue 0, % of patients” value [1] was “(64.74%)”, the “change of fatigue 0, number of patients” value [1] was 1107 and the “change of fatigue 2, % of patients” value [1] was “(24.56%)”. For the same compound, the “change of fatigue 2, number of patients” value [1] was 420, the “change of fatigue 4, % of patients” value [1] was “(4.09%)” and the “change of fatigue 4, number of patients” value [1] was 70. The “change of fatigue 6, % of patients” value [1] was “(0.94%)”, the “change of fatigue 6, number of patients” value [1] was 16 and the “change of fatigue −2, % of patients” value [1] was “(5.03%)”. The “change of fatigue −2, number of patients” value [1] was 86, the “change of fatigue −4, % of patients” value [1] was “(0.53%)” and the “change of fatigue −4, number of patients” value [1] was 9. For the same compound, the “change of fatigue −6, % of patients” value [1] was “(0.12%)”, the “change of fatigue −6, number of patients” value [1] was 2 and the “change of pale complexion 0, number of patients” value [1] was 1387. The “change of pale complexion 0, percent of patients” value [1] was “(81.21%)”, the “change of pale complexion 1, number of patients” value [1] was 259 and the “change of pale complexion 1, percent of patients” value [1] was “(15.16%)”. For the same compound, the “change of pale complexion −1, number of patients” value [1] was 62, the “change of pale complexion −1, percent of patients” value [1] was “(3.63%)” and the “change of palpitation 0, number of patients” value [1] was 1125. For the same compound, the “change of palpitation 0, percent of patients” value [1] was “(65.79%)”, the “change of palpitation 1, number of patients” value [1] was 415 and the “change of palpitation 1, percent of patients” value [1] was “(24.27%)”. The “change of palpitation 2, number of patients” value [1] was 43, the “change of palpitation 2, percent of patients” value [1] was “(2.51%)” and the “change of palpitation 3, number of patients” value [1] was 6. The “change of palpitation 3, percent of patients” value [1] was “(0.35%)”, the “change of palpitation −1, percent of patients” value [1] was “(6.96%)” and the “change of palpitation −2, number of patients” value [1] was 2. For the same compound, the “change of palpitation −2, percent of patients” value [1] was “(0.12%)”, the “change of palpitation −3, number of patients” value [1] was 0 and the “change of palpitation −3, percent of patients” value [1] was “(0.00%)”. The “change of short breath 0, % of patients” value [1] was “(71.29%)”, the “change of short breath 0, number of patients” value [1] was 1219 and the “change of short breath 2, % of patients” value [1] was “(20.47%)”. The “change of short breath 2, number of patients” value [1] was 350, the “change of short breath 4, % of patients” value [1] was “(2.16%)” and the “change of short breath 4, number of patients” value [1] was 37. The “change of short breath 6, % of patients” value [1] was “(0.53%)”, the “change of short breath 6, number of patients” value [1] was 9 and the “change of short breath −2, % of patients” value [1] was “(5.44%)”. The “change of short breath −2, number of patients” value [1] was 93, the “change of short breath −4, % of patients” value [1] was “(0.12%)” and the “change of short breath −4, number of patients” value [1] was 2. The “change of short breath −6, % of patients” value [1] was “(0.00%)”, the “change of short breath −6, number of patients” value [1] was 0 and the “change of spontaneous perspiration 0, number of patients” value [1] was 1083. The “change of spontaneous perspiration 0, percent of patients” value [1] was “(63.37%)”, the “change of spontaneous perspiration 1, number of patients” value [1] was 392 and the “change of spontaneous perspiration 1, percent of patients” value [1] was “(22.94%)”. The “change of spontaneous perspiration 2, number of patients” value [1] was 76, the “change of spontaneous perspiration 2, percent of patients” value [1] was “(4.45%)” and the “change of spontaneous perspiration 3, number of patients” value [1] was 20. For the same compound, the “change of spontaneous perspiration 3, percent of patients” value [1] was “(1.17%)”, the “change of spontaneous perspiration −1, percent of patients” value [1] was “(7.08%)” and the “change of spontaneous perspiration −2, number of patients” value [1] was 15. The “change of spontaneous perspiration −2, percent of patients” value [1] was “(0.88%)”, the “change of spontaneous perspiration −3, number of patients” value [1] was 2 and the “change of spontaneous perspiration −3, percent of patients” value [1] was “(0.12%)”. The “distribution of total score of TCM symptom: Medium, number of patients” value (6 months after treatment) was 418, the “distribution of total score of TCM symptom: Medium, percentage of patients” value (6 months after treatment) was “(26.79%)” and the “distribution of total score of TCM symptom: Mild, number of patients” value (6 months after treatment) was 1133. For the same compound, the “distribution of total score of TCM symptom: Mild, percentage of patients” value (6 months after treatment) was “(72.63%)”, the “distribution of total score of TCM symptom: Severe, number of patients” value (6 months after treatment) was 9 and the “distribution of total score of TCM symptom: Severe, percentage of patients” value (6 months after treatment) was “(0.58%)”. The “fatigue score 0, % of patients” value (6 months after treatment) was “(30.27%)”, the “fatigue score 0, number of patients” value (6 months after treatment) was 520 and the “fatigue score 2, % of patients” value (6 months after treatment) was “(61.00%)”. The “fatigue score 2, number of patients” value (6 months after treatment) was 1048, the “fatigue score 4, % of patients” value (6 months after treatment) was “(7.86%)” and the “fatigue score 4, number of patients” value (6 months after treatment) was 135. For the same compound, the “fatigue score 6, % of patients” value (6 months after treatment) was “(0.87%)”, the “fatigue score 6, number of patients” value (6 months after treatment) was 15 and the “pale complexion score 0, number of patients” value (6 months after treatment) was 871. The “pale complexion score 0, percent of patients” value (6 months after treatment) was “(50.70%)”, the “pale complexion score 1, number of patients” value (6 months after treatment) was 657 and the “pale complexion score 1, percent of patients” value (6 months after treatment) was “(38.24%)”. For the same compound, the “pale complexion score 2, number of patients” value (6 months after treatment) was 179, the “pale complexion score 2, percent of patients” value (6 months after treatment) was “(10.42%)” and the “pale complexion score 3, number of patients” value (6 months after treatment) was 11. For the same compound, the “pale complexion score 3, percent of patients” value (6 months after treatment) was “(0.64%)”, the “palpitation score 0, number of patients” value (6 months after treatment) was 538 and the “palpitation score 0, percent of patients” value (6 months after treatment) was “(31.32%)”. For the same compound, the “palpitation score 2, number of patients” value (6 months after treatment) was 906, the “palpitation score 2, percent of patients” value (6 months after treatment) was “(52.74%)” and the “palpitation score 4, number of patients” value (6 months after treatment) was 246. For the same compound, the “palpitation score 4, percent of patients” value (6 months after treatment) was “(14.32%)”, the “palpitation score 6, number of patients” value (6 months after treatment) was 28 and the “palpitation score 6, percent of patients” value (6 months after treatment) was “(1.63%)”. The “short breath score 0, % of patients” value (6 months after treatment) was “(25.03%)”, the “short breath score 0, number of patients” value (6 months after treatment) was 430 and the “short breath score 2, % of patients” value (6 months after treatment) was “(0.06%)”. The “short breath score 2, number of patients” value (6 months after treatment) was 1, the “short breath score 3, % of patients” value (6 months after treatment) was “(58.09%)” and the “short breath score 3, number of patients” value (6 months after treatment) was 998. The “short breath score 6, % of patients” value (6 months after treatment) was “(16.30%)”, the “short breath score 6, number of patients” value (6 months after treatment) was 280 and the “short breath score 9, % of patients” value (6 months after treatment) was “(0.52%)”. For the same compound, the “short breath score 9, number of patients” value (6 months after treatment) was 9, the “spontaneous perspiration score 0, number of patients” value (6 months after treatment) was 728 and the “spontaneous perspiration score 0, percent of patients” value (6 months after treatment) was “(42.37%)”. For the same compound, the “spontaneous perspiration score 1, number of patients” value (6 months after treatment) was 833, the “spontaneous perspiration score 1, percent of patients” value (6 months after treatment) was “(48.49%)” and the “spontaneous perspiration score 2, number of patients” value (6 months after treatment) was 144. The “spontaneous perspiration score 2, percent of patients” value (6 months after treatment) was “(8.38%)”, the “spontaneous perspiration score 3, number of patients” value (6 months after treatment) was 13 and the “spontaneous perspiration score 3, percent of patients” value (6 months after treatment) was “(0.76%)”. For the same compound, the “total score of TCM symptom, Max” value (6 months after treatment) was 34.00, the “total score of TCM symptom, Md” value (6 months after treatment) was 9.00 and the “total score of TCM symptom, Mean” value (6 months after treatment) was 10.04. For the same compound, the “total score of TCM symptom, Min” value (6 months after treatment) was 0.00, the “change of fatigue 0, % of patients” value [2] was “(56.96%)” and the “change of fatigue 0, number of patients” value [2] was 974. The “change of fatigue 2, % of patients” value [2] was “(28.54%)”, the “change of fatigue 2, number of patients” value [2] was 488 and the “change of fatigue 4, % of patients” value [2] was “(6.43%)”. The “change of fatigue 4, number of patients” value [2] was 110, the “change of fatigue 6, % of patients” value [2] was “(1.05%)” and the “change of fatigue 6, number of patients” value [2] was 18. The “change of fatigue −2, % of patients” value [2] was “(6.32%)”.
